Read-outs that look alike come from different tables or passages of the source.
Legend:
MC5-R [1] = target: T1, MC5-R (Homo sapiens, UniProt P33032); assay: Competitive inhibition binding assay, 125I-NDP-α-MSH, MC5-R; set-up: expressed in transfected cells; details: for Inhibition at 1 μM MC5-R: 1 μM compound, inhibition of 125I-NDP-α-MSH binding, mean of triplicates, results less than 0% reported as 0%
Procedure, shortened: (§1)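 Membranes from hMC3-R, hMC4-R or hMC5-R cells, or B-16 mouse melanoma cells (MC1-R), were incubated 90 min at room temperature with 0.4 nM 125I-NDP-α-MSH in HEPES pH 7.2 with Mg2+/Ca2+/K+, and test compound generally at 1 μM. Filter-bound radioactivity was gamma counted. Specific binding was defined with 1 μM α-MSH; triplicate means.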

MC3-R [2] = target: T2, MC3-R (Homo sapiens, UniProt P41968); assay: Ki determination by the method of Example 4, MC3-R; format: binding; set-up: expressed in transfected cells; host or cells: HEK-293
Method: (§2) The Ki (nM) of certain peptidomimetics were determined, as was the agonist/antagonist status with respect to MC4-R, Functional evaluation of compounds at melanocortin receptors was performed by measuring the accumulation of intracellular cAMP in HEK-293 cells expressing MC3-R, MC4-R or MC5-R, and in B-16 mouse melanoma cells (containing MC1-R). Antagonistic activity was determined by measuring the inhibition of α-MSH-induced cAMP levels following exposure to the compounds. Cells, suspended in Earle's Balanced Salt Solution containing 10 mM HEPES, pH 7.5, 5 mM MgCl2, 1 mM glutamine, 0.1% albumin and 0.6 mM 3-isobutyl-1-methyl-xanthine, a phosphodiesterase inhibitor, were plated in 96 well plates at a density of 0.5×10^5 cells per well. Cells were incubated with the test compounds in the presence or absence of α-MSH for 1 hour at 37° C. cAMP levels were measured by EIA (Amersham) in the cell lysates. Data analysis and EC50 values were determined using nonlinear regression analysis with Prism Graph-Pad software.

[3] = target: T3, MC1-R (B-16 mouse melanoma cells) (Mus musculus, UniProt Q01727); assay: Ki determination by the method of Example 4, MC1-R; format: binding
T3 construct: B-16 mouse melanoma cells (containing MC1-R); endogenous in cells; host or cells: B-16 mouse melanoma cells
Method: as §2

[4] = target: T3, MC1-R (B-16 mouse melanoma cells); assay: Competitive inhibition binding assay, 125I-NDP-α-MSH, MC1-R; details: for Inhibition at 1 μM MC1-R: 1 μM compound, inhibition of 125I-NDP-α-MSH binding, mean of triplicates, results less than 0% reported as 0%
Procedure, shortened: as §1

MC3-R [5] = target: T2, MC3-R; assay: Competitive inhibition binding assay, 125I-NDP-α-MSH, MC3-R; set-up: expressed in transfected cells; details: for Inhibition at 1 μM MC3-R: 1 μM compound, inhibition of 125I-NDP-α-MSH binding, mean of triplicates, results less than 0% reported as 0%
Procedure, shortened: as §1

MC4-R [6] = target: T4, MC4-R (Homo sapiens, UniProt P32245); assay: Competitive inhibition binding assay, 125I-NDP-α-MSH, MC4-R; set-up: expressed in transfected cells; details: for Inhibition at 1 μM MC4-R: 1 μM compound, inhibition of 125I-NDP-α-MSH binding, mean of triplicates, results less than 0% reported as 0%
Procedure, shortened: as §1

MC4-R [7] = target: T4, MC4-R; assay: Ki determination by the method of Example 4, MC4-R; format: binding; set-up: expressed in transfected cells; host or cells: HEK-293
Method: as §2

MC5-R [8] = target: T1, MC5-R; assay: Ki determination by the method of Example 4, MC5-R; format: binding; set-up: expressed in transfected cells; host or cells: HEK-293
Method: as §2

[9] = target: T3, MC1-R (B-16 mouse melanoma cells); assay: cAMP assay for agonist/antagonist status, MC1-R; format: cell-based
Method: as §2

MC4-R (HEK-293 cells) = target: T5, MC4-R (HEK-293 cells) (Homo sapiens, UniProt P32245); assay: cAMP assay for agonist/antagonist status, MC4-R; format: cell-based
T5 construct: expressed in transfected cells; host or cells: HEK-293
Method: as §2

MC5-R (HEK-293 cells) = target: T6, MC5-R (HEK-293 cells) (Homo sapiens, UniProt P33032); assay: cAMP assay for agonist/antagonist status, MC5-R; format: cell-based
T6 construct: expressed in transfected cells; host or cells: HEK-293
Method: as §2

[10] = bound in μM, read-out: Ki MC3-R
[11] = bound in μM, read-out: Ki MC1-R
[12] = bound in μM, read-out: Ki MC5-R
[13] = bound in μM, read-out: Ki MC4-R

T4 sequence (P32245 whole entry): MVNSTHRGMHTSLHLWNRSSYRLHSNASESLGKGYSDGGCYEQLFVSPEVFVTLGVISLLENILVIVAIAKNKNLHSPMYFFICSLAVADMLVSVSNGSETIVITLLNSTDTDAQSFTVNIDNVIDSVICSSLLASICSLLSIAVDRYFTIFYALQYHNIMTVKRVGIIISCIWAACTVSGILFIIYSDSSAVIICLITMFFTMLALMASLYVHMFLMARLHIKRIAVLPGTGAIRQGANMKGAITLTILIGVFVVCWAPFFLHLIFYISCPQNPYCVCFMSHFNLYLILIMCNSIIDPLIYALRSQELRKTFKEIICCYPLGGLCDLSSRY
T3 sequence (Q01727 whole entry): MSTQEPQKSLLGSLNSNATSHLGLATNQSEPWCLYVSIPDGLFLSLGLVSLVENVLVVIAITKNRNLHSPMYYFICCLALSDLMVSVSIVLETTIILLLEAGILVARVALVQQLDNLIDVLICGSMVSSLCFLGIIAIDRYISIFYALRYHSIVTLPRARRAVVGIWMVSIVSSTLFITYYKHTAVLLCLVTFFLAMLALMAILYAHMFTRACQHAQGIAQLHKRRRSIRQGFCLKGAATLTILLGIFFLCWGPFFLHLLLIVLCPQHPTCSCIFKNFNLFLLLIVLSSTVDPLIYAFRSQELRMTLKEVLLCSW
T1 sequence (P33032 whole entry): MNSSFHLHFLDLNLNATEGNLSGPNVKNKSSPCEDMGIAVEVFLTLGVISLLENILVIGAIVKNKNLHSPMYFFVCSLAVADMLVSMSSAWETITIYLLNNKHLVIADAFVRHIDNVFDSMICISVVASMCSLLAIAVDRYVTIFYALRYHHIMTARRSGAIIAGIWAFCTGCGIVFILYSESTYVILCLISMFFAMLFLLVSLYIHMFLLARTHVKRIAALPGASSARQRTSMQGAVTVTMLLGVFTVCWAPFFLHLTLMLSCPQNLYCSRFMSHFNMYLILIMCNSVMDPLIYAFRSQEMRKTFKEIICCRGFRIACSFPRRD
T2 sequence (P41968 whole entry): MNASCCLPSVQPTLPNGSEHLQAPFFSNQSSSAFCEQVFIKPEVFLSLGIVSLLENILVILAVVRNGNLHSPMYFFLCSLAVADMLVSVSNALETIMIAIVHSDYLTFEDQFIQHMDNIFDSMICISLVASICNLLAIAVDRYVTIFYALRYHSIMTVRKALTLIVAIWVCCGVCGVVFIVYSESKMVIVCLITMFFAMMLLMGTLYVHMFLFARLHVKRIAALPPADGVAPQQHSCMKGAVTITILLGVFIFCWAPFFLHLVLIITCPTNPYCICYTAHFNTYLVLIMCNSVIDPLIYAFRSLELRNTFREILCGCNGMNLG
T5 sequence (P32245 whole entry): as the sequence (P32245 whole entry) above
T6 sequence (P33032 whole entry): as the sequence (P33032 whole entry) above

## N=C(N)NCCCC1C(=O)N(CCc2c[nH]c3ccccc23)CCN1C(=O)C(Cc1ccc(Cl)cc1)NC(=O)C1Cc2ccccc2CN1 (stereo not drawn) [Example 14]
MC5-R [1]
  inhibition at 1 µM: 89%
MC3-R [2]; read-out: Ki (nM) MC3-R
  Ki: 77 nM
[3]; read-out: Ki (nM) MC1-R
  Ki: 3 nM
[4]
  inhibition at 1 µM: 96%
MC3-R [5]
  inhibition at 1 µM: 88%
MC4-R [6]
  inhibition at 1 µM: 99%
MC4-R [7]; read-out: Ki (nM) MC4-R
  Ki: 2 nM
MC5-R [8]; read-out: Ki (nM) MC5-R
  Ki: 52 nM

## N=C(N)NCCCC1C(=O)N(CCc2c[nH]c3ccccc23)CCN1C(=O)C(Cc1ccc(Cl)cc1)NC(=O)C(COCc1ccccc1)NC(=O)CCCCCCN (stereo not drawn) [Example 17]
MC5-R [1]
  inhibition at 1 µM: 94%
MC3-R [2]; read-out: Ki (nM) MC3-R
  Ki: 17 nM
[3]; read-out: Ki (nM) MC1-R
  Ki: 4 nM
[4]
  inhibition at 1 µM: 96%
MC3-R [5]
  inhibition at 1 µM: 97%
MC4-R [6]
  inhibition at 1 µM: 99%
MC4-R [7]; read-out: Ki (nM) MC4-R
  Ki: 2 nM
MC5-R [8]; read-out: Ki (nM) MC5-R
  Ki: 32 nM

## NCCCC[C@H]1C(=O)N(CCc2ccc3ccccc3c2)CCN1C(=O)[C@@H](Cc1ccc(Cl)cc1Cl)NC(=O)[C@@H]1CC[C@H](c2ccccc2)N1 [Example 26]
MC3-R [2]; [10]
  Ki: > 1000 nM
[3]; [11]
  Ki: > 1000 nM
MC4-R [7]; read-out: Ki (nM) MC4-R
  Ki: 50 nM
MC5-R [8]; read-out: Ki (nM) MC5-R
  Ki: 789 nM

## NC(COCc1ccccc1)C(=O)NC(Cc1ccc(Cl)cc1Cl)C(=O)N1CCN(CCc2ccc3ccccc3c2)C(=O)C1CCCNC1=NCCN1 (stereo not drawn) [Example 48]
MC5-R [1]
  inhibition at 1 µM: 75%
MC3-R [2]; [10]
  Ki: > 1000 nM
[3]; [11]
  Ki: > 1000 nM
[4]
  inhibition at 1 µM: 63%
MC3-R [5]
  inhibition at 1 µM: 60%
MC4-R [6]
  inhibition at 1 µM: 99%
MC4-R [7]; read-out: Ki (nM) MC4-R
  Ki: 4 nM
MC5-R [8]; read-out: Ki (nM) MC5-R
  Ki: 104 nM

## N=C(N)NCCCC1C(=O)N2C(COc3ccc4ccccc4c3)CCC2N1C(=O)C(Cc1ccccc1)NC(=O)C(N)Cc1cnc[nH]1 (stereo not drawn) [Example 97]
MC3-R [2]; [10]
  Ki: > 1000 nM
[3]; read-out: Ki (nM) MC1-R
  Ki: 1 nM
MC4-R [7]; read-out: Ki (nM) MC4-R
  Ki: 226 nM
MC5-R [8]; [12]
  Ki: > 1000 nM

## N=C(N)NCCC[C@H]1C(=O)N2C(CC[C@@H]2COc2ccc3ccccc3c2)N1C(=O)[C@@H](Cc1ccccc1Cl)NC(=O)[C@@H]1C[C@@H](OCc2ccccc2)CN1 (stereo partly drawn) [Example 100]
MC5-R [1]
  Inhibition at 1 μM MC5-R: 93%
MC3-R [2]; read-out: Ki (nM) MC3-R
  Ki: 854 nM
[3]; read-out: Ki (nM) MC1-R
  Ki: 244 nM
[4]
  Inhibition at 1 μM MC1-R: 54%
MC3-R [5]
  Inhibition at 1 μM MC3-R: 40%
MC4-R [6]
  Inhibition at 1 μM MC4-R: 95%
MC4-R [7]; read-out: Ki (nM) MC4-R
  Ki: 42 nM
MC5-R [8]; read-out: Ki (nM) MC5-R
  Ki: 284 nM
[9]
  agonist/antagonist status as to MC1-R: agonist
MC4-R (HEK-293 cells)
  agonist/antagonist status as to MC4-R: agonist

## N=C(N)NCCC[C@H]1C(=O)N2C(CC[C@@H]2COc2ccc3ccccc3c2)N1C(=O)[C@@H](Cc1ccc(Cl)cc1Cl)NC(=O)[C@@H]1Cc2ccccc2CN1 (stereo partly drawn) [Example 112]
MC5-R [1]
  Inhibition at 1 μM MC5-R: 96%
MC3-R [2]; read-out: Ki (nM) MC3-R
  Ki: 42 nM
[3]; read-out: Ki (nM) MC1-R
  Ki: 111 nM
[4]
  Inhibition at 1 μM MC1-R: 75%
MC3-R [5]
  Inhibition at 1 μM MC3-R: 88%
MC4-R [6]
  Inhibition at 1 μM MC4-R: 100%
MC4-R [7]; read-out: Ki (nM) MC4-R
  Ki: 1 nM
MC5-R (HEK-293 cells)
  agonist/antagonist status as to MC5-R: antagonist
MC5-R [8]; read-out: Ki (nM) MC5-R
  Ki: 26 nM
[9]
  agonist/antagonist status as to MC1-R: inactive
MC4-R (HEK-293 cells)
  agonist/antagonist status as to MC4-R: antagonist

## N=C(N)NCCC[C@H]1C(=O)N2C(CC[C@@H]2COc2ccc3ccccc3c2)N1C(=O)[C@@H](Cc1ccc(Cl)cc1Cl)NC(=O)[C@@H]1CC[C@H](c2ccccc2)N1 (stereo partly drawn) [Example 115]
MC5-R [1]
  inhibition at 1 µM: 86%
MC3-R [2]; [10]
  Ki: > 1000 nM
[3]; [11]
  Ki: > 1000 nM
MC3-R [5]
  inhibition at 1 µM: 43%
MC4-R [6]
  inhibition at 1 µM: 97%
MC4-R [7]; read-out: Ki (nM) MC4-R
  Ki: 12 nM
MC5-R [8]; read-out: Ki (nM) MC5-R
  Ki: 99 nM

## NCCCNC(=O)[C@@H]1C[C@@H](OCc2ccccc2)CN1C(=O)[C@@H](Cc1ccc(Cl)cc1)NC(=O)[C@H]1Cc2ccccc2CN1 [Example 146]
MC3-R [2]; [10]
  Ki: > 1000 nM
[3]; [11]
  Ki: > 1000 nM
MC4-R [7]; [13]
  Ki: > 1000 nM
MC5-R [8]; [12]
  Ki: > 1000 nM

## NCCCNC(=O)C1CC(OCc2ccccc2)CN1C(=O)C(Cc1ccccc1)NC(=O)C1Cc2ccccc2CN1 (stereo not drawn) [Example 147]
MC3-R [2]; [10]
  Ki: > 1000 nM
[3]; [11]
  Ki: > 1000 nM
MC4-R [7]; [13]
  Ki: > 1000 nM
MC5-R [8]; [12]
  Ki: > 1000 nM

## NCCCNC(=O)[C@@H]1C[C@@H](OCc2ccccc2)CN1C(=O)[C@@H](Cc1ccccc1)NC(=O)[C@H]1Cc2ccccc2CN1 [Example 148]
MC3-R [2]; [10]
  Ki: > 1000 nM
[3]; [11]
  Ki: > 1000 nM
MC4-R [7]; [13]
  Ki: > 1000 nM
MC5-R [8]; [12]
  Ki: > 1000 nM

## [2H]N[C@@H](Cc1cnc[nH]1)C(=O)N[C@@H](Cc1ccccc1)C(=O)N1C2CC[C@H](COc3ccc4ccccc4c3)N2C(=O)[C@@H]1CCCCN (stereo partly drawn) [Example 180]
MC3-R [2]; [10]
  Ki: > 1000 nM
[3]; read-out: Ki (nM) MC1-R
  Ki: 8 nM
MC4-R [7]; [13]
  Ki: > 1000 nM
MC5-R [8]; [12]
  Ki: > 1000 nM
[9]
  agonist/antagonist status as to MC1-R: agonist
[9]; listed as Compound 2
  agonist/antagonist status as to MC1-R: potent MCR-1 agonist

Reference: patent US7807678B2, “Peptidomimetics of biologically active metallopeptides” (Palatin Technologies, Inc., priority 2001, dated 2010)
